Patent US20160331754A1, “THERAPIES FOR TREATING CANCERS” (GILEAD SCIENCES, INC., priority 2014, published 2016)
Several values for one entry are separate records, joined by “and”; a condition that tells them apart may be missing. Identical values can stand only once.

Key:
[1] = test system: p-AKT Ser473; experiment: Flow cytometry, basal AKT phosphorylation in CD34+ progenitor cells from MF patients; format: cell-based, human; conditions: one line per patient, vehicle=100
Protocol: PBMCs were isolated from whole blood of myelofibrosis (MF) patients who had not received treatments (i.e. naïve patients) or received ruxolitinib (i.e. rux-treated patients). The cells were treated with 0.02, 0.2, or 2.0 μM of Compound B or vehicle (0.1% DMSO in 0.1% FBS/RPMI) for 2 hours at 37° C. The cells were then fixed, permeabilized, and stained for FACS analysis. Antibodies specific to p-AKT Ser473 and pS6RP Ser235/236 were used to detect AKT phosphorylation (p-AKT) and S6RP phosphorylation (p-S6RP) in CD34^+/CD3^−/CD14^−/CD19/CD66^− (BD Biosciences) gated cells using flow cytometry. The percentage of basal (i.e. untreated with TPO) AKT and S6RP phosphorylation were normalized to vehicle control. A two-tailed paired t-test (GraphPad Prism) was used to calculate p-values. Values of p<0.05 were considered significant.
Similar studies were conducted with PI3K inhibitors Compounds C and D. PBMC from MF patients had received ruxolitinib (rux) and MF patient had received Compound A. The cells were treated with Compounds C or D at 0, 20.0, 200.0, 2000.0 nM for 2 hours at 37° C. Cells were treated with TPO for 10 minutes. The percentage of basal p-AKT and p-S6RP levels were normalized to vehicle control and those of TPO-treated were normalized to TPO-treated vehicle control. The PI3Kδ inhibitors Compound C is referred by the chemical names of (S)-2-(1-((9H-purin-6-yl)amino)ethyl)-6-fluoro-3-phenylquinazolin-4(3H)-one.

[2] = test system: pS6 Ser235/236; experiment: Western blot, TPO-activated S6 phosphorylation in BaF3/MPL cells; format: cell-based; conditions: then TPO
Protocol: In addition, Compound B was examined for the effects on the PI3K signaling pathway by determining the levels of AKT and S6 phosphorylation with or without TPO activation. Two cell lines, BaF3/MPL and UT-7/TPO sensitive or responsive to TPO activation were used. The cells were starved (i.e. growing on medium having less FBS) in […] FBS/RPMI for two hours before treated with 0.1, 1.0, or 2.0 μM of Compound B or vehicle (0.1% DMSO in RPMI) for 2 hours at 37° C. To examine the TPO-activated phosphorylation, the cells were then treated or activated with 50 ng/mL of human recombinant TPO (Peprotech) for 10 minutes at 37° C. The TPO activation or treatment may reflect the conditions in diseased cells as the PI3K pathway is activated by TPO in myelofibrosis. After treating with compound and/or TPO, the cells were collected, lysed by lysis buffer (Cell Signaling), separated by SDS-PAGE, and analyzed by the Western blot using antibodies specific to p-AKT Ser473 or pS6 Ser235/236 (Cell Signaling). The phosphorylation levels in treated cells were calculated and compared to those of untreated cells (i.e. vehicle as negative control).

[3] = Plasma concentration in patient at clinical dose; format: in vivo, human; conditions: clinical dose 150 mg, twice a day
[4] = target: PI3Kδ (Homo sapiens, UniProt O00329); experiment: TR-FRET in vitro biochemical enzyme assay of class I PI3K isoforms
Chain of PI3Kδ (O00329 whole entry, canonical isoform): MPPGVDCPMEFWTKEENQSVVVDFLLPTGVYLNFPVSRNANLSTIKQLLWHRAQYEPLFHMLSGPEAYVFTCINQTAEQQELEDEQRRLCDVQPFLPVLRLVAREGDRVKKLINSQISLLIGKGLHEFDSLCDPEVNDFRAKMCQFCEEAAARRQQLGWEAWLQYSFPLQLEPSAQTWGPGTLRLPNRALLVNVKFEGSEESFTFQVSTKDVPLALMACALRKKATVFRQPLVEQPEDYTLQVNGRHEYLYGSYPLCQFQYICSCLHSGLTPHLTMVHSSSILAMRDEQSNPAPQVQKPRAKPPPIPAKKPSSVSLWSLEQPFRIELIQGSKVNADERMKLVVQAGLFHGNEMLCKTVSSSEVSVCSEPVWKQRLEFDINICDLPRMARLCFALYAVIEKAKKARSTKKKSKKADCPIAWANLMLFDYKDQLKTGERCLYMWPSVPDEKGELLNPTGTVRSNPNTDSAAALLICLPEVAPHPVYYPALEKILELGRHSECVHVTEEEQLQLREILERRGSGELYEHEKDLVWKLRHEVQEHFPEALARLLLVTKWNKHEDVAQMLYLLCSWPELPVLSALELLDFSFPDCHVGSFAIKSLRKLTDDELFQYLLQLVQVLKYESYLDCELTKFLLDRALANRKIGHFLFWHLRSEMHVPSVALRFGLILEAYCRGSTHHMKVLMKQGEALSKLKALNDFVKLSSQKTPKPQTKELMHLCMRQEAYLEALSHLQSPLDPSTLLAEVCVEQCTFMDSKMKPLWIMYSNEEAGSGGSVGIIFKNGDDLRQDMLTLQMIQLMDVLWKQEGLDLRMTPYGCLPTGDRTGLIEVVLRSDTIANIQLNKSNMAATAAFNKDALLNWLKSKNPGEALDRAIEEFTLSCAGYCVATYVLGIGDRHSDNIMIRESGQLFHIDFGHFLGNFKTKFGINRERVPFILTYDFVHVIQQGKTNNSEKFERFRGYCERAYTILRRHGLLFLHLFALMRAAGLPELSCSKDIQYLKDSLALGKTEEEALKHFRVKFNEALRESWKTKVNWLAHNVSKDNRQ
Chain of PI3Kδ (P27986 whole entry partner, canonical isoform): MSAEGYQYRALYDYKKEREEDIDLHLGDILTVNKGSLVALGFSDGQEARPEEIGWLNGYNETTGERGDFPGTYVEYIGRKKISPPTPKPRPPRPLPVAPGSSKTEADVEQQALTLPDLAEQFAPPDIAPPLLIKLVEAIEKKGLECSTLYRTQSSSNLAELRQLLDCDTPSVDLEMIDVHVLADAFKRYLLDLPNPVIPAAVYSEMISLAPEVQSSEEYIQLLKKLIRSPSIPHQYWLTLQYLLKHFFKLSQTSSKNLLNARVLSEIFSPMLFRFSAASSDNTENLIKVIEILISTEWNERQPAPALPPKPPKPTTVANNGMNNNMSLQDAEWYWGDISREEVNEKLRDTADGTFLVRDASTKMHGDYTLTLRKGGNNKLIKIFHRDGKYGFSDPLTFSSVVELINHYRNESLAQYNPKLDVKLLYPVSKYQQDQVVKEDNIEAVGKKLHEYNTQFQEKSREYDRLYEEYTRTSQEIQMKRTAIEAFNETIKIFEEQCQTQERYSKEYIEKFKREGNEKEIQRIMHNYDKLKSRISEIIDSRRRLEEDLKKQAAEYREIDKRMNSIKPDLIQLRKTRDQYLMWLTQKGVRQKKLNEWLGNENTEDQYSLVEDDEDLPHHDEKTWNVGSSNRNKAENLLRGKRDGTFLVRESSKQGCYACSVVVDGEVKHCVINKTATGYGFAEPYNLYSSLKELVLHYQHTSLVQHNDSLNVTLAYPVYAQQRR
Protocol: The effects of Compound B on the activities of class I PI3K isoforms were measured using an in vitro biochemical enzyme assay at steady-state concentrations of adenosine triphosphate (ATP). Compound B is (S)-2-(1-((9H-purin-6-yl)amino)propyl)-5-fluoro-3-phenylquinazolin-4(3H)-one as described above.
A time resolved fluorescence resonance energy transfer (TR-FRET) assay was used to monitor the formation of […] (PIP3) molecule, as it competed with fluorescently labeled PIP3 for binding to the GRP-1 pleckstrin homology domain protein.

In the case of `CC[C@H](Nc1ncnc2[nH]cnc12)c1nc2cccc(F)c2c(=O)n1-c1ccccc1` [Compound B, (S)-2-(1-((9H-purin-6-yl)amino)propyl)-5-fluoro-3-phenylquinazolin-4(3H)-one], the “normalized percentage of basal AKT phosphorylation (p-AKT)” value (shortened to “normalized percentage … (p-AKT)”) ([1]; 0.02 μM 2 h, naïve MF patients) was 99% and 102% and 83% and 88% and 84%, the “normalized percentage … (p-AKT)” value ([1]; 0.02 μM 2 h, rux-treated MF patients) was 88% and 89% (2×) and 91% and 57% and 96% and 100% and the “normalized percentage … (p-AKT)” value ([1]; 0.2 μM 2 h, naïve MF patients) was 64% and 127% and 75% and 76% and 81% and 72%. For the same compound, the “normalized percentage … (p-AKT)” value ([1]; 0.2 μM 2 h, rux-treated MF patients) was 85% and 78% and 81% and 82% (2×) and 52% and 87%, the “normalized percentage … (p-AKT)” value ([1]; 2 μM 2 h, naïve MF patients) was 55% and 96% and 66% (2×) and 70% and 47% and the “normalized percentage … (p-AKT)” value ([1]; 2 μM 2 h, rux-treated MF patients) was 69% and 77% and 83% and 84% and 43% and 98% and 79%. For the same compound, the “reduced p-S6 levels vs vehicle” value ([2]; 0.1 μM 2 h) was 24%, the “reduced p-S6 levels vs vehicle” value ([2]; 1.0 μM 2 h) was 27% and the “reduced p-S6 levels vs vehicle” value ([2]; 2.0 μM 2 h) was 41%. For the same compound, the “maximal average plasma concentration (Cmax), adjusted for protein binding” value [3] was 256 nM, the “selectivity among PI3K isoforms” value [4] was “selective inhibitor to PI3Kδ” and the “inhibition to PI3Kδ compared to PI3Kα” value ([4]; steady-state ATP) was 450 fold. The “inhibition to PI3Kδ compared to PI3Kβ” value ([4]; steady-state ATP) was 210 fold and the “inhibition to PI3Kδ compared to PI3Kγ” value ([4]; steady-state ATP) was 110 fold.
